Measured values as given in patent publication US11220482B2, “Aminopyridinemethanol compounds and their use” (UNIVERSITE AMIENS PICARDIE JULES VERNE, priority 2017, dated 2022).
Read-outs that look alike come from different tables or passages of the source.

Columns and labels:
[1] = system: Plasmodium falciparum 3D7; test: Plasmodium falciparum susceptibility assay, first round (SYBR Green I); type: cell-based; conditions: 3D7, first round, 48-h incubation, strain susceptible to CQ, decreased susceptibility to MQ, read-out: IC50 (nM) Plasmodium falciparum 3D7 (converted)
[2] = system: Plasmodium falciparum W2; test: as above; type: cell-based; conditions: W2, first round, 48-h incubation, strain resistant to CQ, sensitive to MQ, read-out: IC50 (nM) Plasmodium falciparum W2 (converted)
[3] = system: CHO-K1 cells; test: In vitro micronucleus assay, short-term exposure; conditions: for MNC-M (mean of micronucleated cell rates): Chinese hamster, 3 h
Method: All the assays were conducted in duplicate. The CHO-K1 cells, suspended in McCoy's 5A medium, were transferred into Labteck wells at a concentration of 100,000 cells/mL, and incubated for 24 hours at 37° C. in CO2 (5%).
When the test was performed without metabolic activation, the test substances were added into cell cultures at concentrations previously defined.
When the assay was performed in the presence of metabolic activation, S9 mix metabolizing mixture was added to cell cultures at a concentration of 10%. Then the test substances were added to the cell cultures at concentrations previously defined.
After 3 hours of incubation at 37° C. in CO2 (5%), the culture medium was removed, the cells were rinsed with phosphate buffered saline (PBS), and then returned to culture in McCoy's 5A medium containing […] of cytochalasin B. After a 21-hour incubation period at 37° C., cells were rinsed with phosphate buffered saline (PBS), fixed with methanol and stained with 10% Giemsa for 20 minutes.
(§1) The analysis of results was performed under a microscope at ×1000 magnification. The antiproliferative activity of test substances was estimated by counting the number of binucleated cells relative to the number of mononucleated cells on a total of 500 cells for each dose (250 cells counted per well). The proliferation index (Cytokinesis Blocked Proliferative Index CBPI) was calculated using the following formula:
(§2) The cytostasis index (CI %), i.e. the percentage of cell replication inhibition, was calculated using the following formula: CI %−100−{100×(CBPItest material−1)/(CBPIsolvent control−1)}
(§3) The rates of micronuclei were evaluated for the presence of independent nuclear core entities in 1000 binucleated cells per well, which corresponds to 2000 cells examined by test substance dose. Micronuclei were identified as small nuclei well differentiated from cell nucleus, stained in the same manner and having a diameter less than one third of that of the cell nucleus.
(§4) Micronuclei rates obtained for different doses of test substances were compared to the negative control by a χ2 test. The assay was considered positive if: • A dose-response relationship was obtained between the rate of micronuclei and the doses tested, • At least one of these doses induced a statistically significant increase (P<0.05) in the number of micronucleated cells as compared to the negative control.

[4] = system: CHO-K1 cells; conditions: Chinese hamster, 24 h
Method: All the assays were conducted in duplicate. The CHO-K1 cells, suspended in Mac Coy's 5A medium, were transferred into Labteck wells at a concentration of 100,000 cells/mL, and incubated for 24 hours at 37° C. in CO2 (5%).
The test was performed without metabolic activation: the test substances were added into cell cultures at concentrations previously defined. […] After 24 hours of incubation at 37° C. in CO2 (5%), the culture medium was removed, the cells were rinsed with phosphate buffered saline (PBS), and then returned in culture medium containing […] of cytochalasine B. After a 24-hour incubation period at 37° C., cells were rinsed with phosphate buffered saline (PBS), fixed with methanol and stained with 10% Giemsa for 20 minutes.
as §1, §2, §3, §4

[5] = system: Salmonella strains; test: Bacterial reverse mutation assay (Ames test), overall conclusion; type: cell-based, S. typhimurium; conditions: all tested doses, absence or presence of the metabolizing mixture
Method: Five strains of S. typhimurium were used. […] An additional strain has been chosen to detect cross-linking mutagens, hydrazines and oxidative agents: TA102, which have an AT base pair at the primary reversion site. Salmonella tester strains were gifts from Prof. B. N. Ames (Berkeley, Calif., USA). They were stored at −80° C. and regularly checked for genetic markers.
Few crystals of the frozen working strains were taken with a sterile pipette, and seeded in 10 mL of nutrient broth (NB No 2, Oxoid). Strains were grown overnight at 37° C. with shaking in Nutrient Broth No. 2, with ampicillin (25 μg/mL) for TA1535, TA97a, TA98, and TA 100, or ampicillin (25 μg/mL) plus tetracyclin (2 μg/mL) for TA 102. At the end of the incubation period, 0.1 mL of each overnight culture was mixed to 0.1 mL S9 Mix or 0.1 mL phosphate-buffered saline (PBS, pH 7.4) in 5 mL plastic tubes and various volumes of the tested samples were added to the mixtures. Each experiment included triplicate plates of four tested doses. A solvent (DMSO, 10 μL) control was added to determine the spontaneous frequency of revertants (quadruple plates). Five positive controls were also included to ensure the performance of the tester strains and the S9 Mix. […] After hardening, the plates were incubated at 37° C. for 48 hours.
At the end of the incubation period, revertants were counted with a laser colony counter equipped with a bacterial enumeration program (Spiral System Instrument Inc., Bethesda, Md., USA).
The Dunnett test was performed to determine a significant difference between the mean number of induced revertants and the mean number of spontaneous revertants.

[6] = system: S. typhimurium TA1535
[7] = system: S. typhimurium TA97a
[8] = system: S. typhimurium TA100
[9] = system: S. typhimurium TA102
[10] = system: S. typhimurium TA98; test: Bacterial reverse mutation assay (Ames test)
[11] = Table 18 second section, "Test without S9 mix", 0.4 μg/plate
[12] = Table 18 second section, "Test without S9 mix", 0.6 μg/plate
[13] = Table 18 second section, "Test without S9 mix", 0.8 μg/plate
[14] = Table 18 second section, "Test without S9 mix", 1 μg/plate

For `CCCCCNC[C@@H](O)c1cc(-c2ccc(C(F)(F)F)cc2)nc(C(F)(F)F)c1` [Compound 1a], the IC50 [1] was 52.4 ± 1.7 nM, the IC50 [2] was 8.6 ± 1 nM and the “in vitro micronucleus assay result (clastogenic and/or aneugenic activities)” value [3] was “negative results”. The “MNC-M (mean of micronucleated cell rates)” value (from here on “MNC-M”) ([3]; 10 μM) was 9.5 ± 0.7 ‰, the “MNC-M” value ([3]; 50 μM) was 10 ± 1.4 ‰ and the “MNC-M” value ([3]; 100 μM) was 11 ± 1.4 ‰. The “BI (binucleated cells)” value ([4]; 5 μM) was 417, the “CBPI (Cytokinesis-Blocked Proliferative Index)” value ([4]; 5 μM) was 1.83 and the “CI % (cytostasis index)” value ([4]; 5 μM) was 8%. The “MNC1 (micronucleated cell rate)” value ([4]; 5 μM) was 10 ‰, the “MNC2 (micronucleated cell rate)” value ([4]; 5 μM) was 9 ‰ and the “MNC-M” value ([4]; 5 μM) was 9.5 ± 0.7 ‰. The “MONO (mononucleated cells)” value ([4]; 5 μM) was 83, the “BI (binucleated cells)” value ([4]; 10 μM) was 323 and the “CBPI (Cytokinesis-Blocked Proliferative Index)” value ([4]; 10 μM) was 1.64. For the same compound, the “CI % (cytostasis index)” value ([4]; 10 μM) was 29%, the “MNC1 (micronucleated cell rate)” value ([4]; 10 μM) was 9 ‰ and the “MNC2 (micronucleated cell rate)” value ([4]; 10 μM) was 11 ‰. The “MNC-M” value ([4]; 10 μM) was 10 ± 1.4 ‰, the “MONO (mononucleated cells)” value ([4]; 10 μM) was 177 and the “BI (binucleated cells)” value ([4]; 50 μM) was 226. For the same compound, the “CBPI (Cytokinesis-Blocked Proliferative Index)” value ([4]; 50 μM) was 1.46, the “CI % (cytostasis index)” value ([4]; 50 μM) was 52% and the “MNC1 (micronucleated cell rate)” value ([4]; 50 μM) was 10 ‰. For the same compound, the “MNC2 (micronucleated cell rate)” value ([4]; 50 μM) was 12 ‰, the “MNC-M” value ([4]; 50 μM) was 11 ± 1.4 ‰ and the “MONO (mononucleated cells)” value ([4]; 50 μM) was 274. For the same compound, the “mutagenic activity in Salmonella strains (revertant rates)” value [5] was “No significant increase in revertant rates”, the “Number of revertants by plate (Means ± SD), TA1535” value (shortened to “Number … (Means ± SD), TA1535”) [6, 11] was 29 ± 8^NS and the “Number … (Means ± SD), TA1535” value [6, 12] was 29 ± 9^NS. The “Number … (Means ± SD), TA1535” value [6, 13] was 32 ± 8^NS, the “Number … (Means ± SD), TA1535” value [6, 14] was 27 ± 4^NS and the “Number … (Means ± SD), TA1535” value ([6]; without S9 mix, 0.4 μg/plate) was 25 ± 6^NS. For the same compound, the “Number … (Means ± SD), TA1535” value ([6]; without S9 mix, 0.6 μg/plate) was 30 ± 5^NS, the “Number … (Means ± SD), TA1535” value ([6]; without S9 mix, 0.8 μg/plate) was 31 ± 4^NS and the “Number … (Means ± SD), TA1535” value ([6]; without S9 mix, 1 μg/plate) was 26 ± 6^NS. For the same compound, the “Number of revertants by plate (Means ± SD), TA97a” value (shortened to “Number … (Means ± SD), TA97a”) [7, 11] was 128 ± 8^NS, the “Number … (Means ± SD), TA97a” value [7, 12] was 133 ± 4^NS and the “Number … (Means ± SD), TA97a” value [7, 13] was 147 ± 10^NS. The “Number … (Means ± SD), TA97a” value [7, 14] was 151 ± 6^NS, the “Number … (Means ± SD), TA97a” value ([7]; without S9 mix, 0.4 μg/plate) was 161 ± 8^NS and the “Number … (Means ± SD), TA97a” value ([7]; without S9 mix, 0.6 μg/plate) was 155 ± 6^NS. The “Number … (Means ± SD), TA97a” value ([7]; without S9 mix, 0.8 μg/plate) was 159 ± 8^NS, the “Number … (Means ± SD), TA97a” value ([7]; without S9 mix, 1 μg/plate) was 154 ± 9^NS and the “Number of revertants by plate (Means ± SD), TA100” value (from here on “Number … (Means ± SD), TA100”) [8, 11] was 185 ± 8. The “Number … (Means ± SD), TA100” value [8, 12] was 183 ± 7^NS, the “Number … (Means ± SD), TA100” value [8, 13] was 172 ± 6^NS and the “Number … (Means ± SD), TA100” value [8, 14] was 177 ± 4^NS. The “Number … (Means ± SD), TA100” value ([8]; without S9 mix, 0.4 μg/plate) was 189 ± 8, the “Number … (Means ± SD), TA100” value ([8]; without S9 mix, 0.6 μg/plate) was 192 ± 9^NS and the “Number … (Means ± SD), TA100” value ([8]; without S9 mix, 0.8 μg/plate) was 215 ± 13^NS. For the same compound, the “Number … (Means ± SD), TA100” value ([8]; without S9 mix, 1 μg/plate) was 196 ± 14^NS, the “Number of revertants by plate (Means ± SD), TA102” value (“Number … (Means ± SD), TA102” for short) [9, 11] was 387 ± 8^NS and the “Number … (Means ± SD), TA102” value [9, 12] was 395 ± 9^NS. For the same compound, the “Number … (Means ± SD), TA102” value [9, 13] was 379 ± 8^NS, the “Number … (Means ± SD), TA102” value [9, 14] was 378 ± 5^NS and the “Number … (Means ± SD), TA102” value ([9]; without S9 mix, 0.4 μg/plate) was 319 ± 12^NS. The “Number … (Means ± SD), TA102” value ([9]; without S9 mix, 0.6 μg/plate) was 308 ± 10^NS, the “Number … (Means ± SD), TA102” value ([9]; without S9 mix, 0.8 μg/plate) was 325 ± 13^NS and the “Number … (Means ± SD), TA102” value ([9]; without S9 mix, 1 μg/plate) was 318 ± 10^NS. For the same compound, the “Number of revertants by plate (Means ± SD), TA98” value (“Number … (Means ± SD), TA98” for short) [10, 11] was 28 ± 3^NS, the “Number … (Means ± SD), TA98” value [10, 12] was 25 ± 5^NS and the “Number … (Means ± SD), TA98” value [10, 13] was 31 ± 6^NS. The “Number … (Means ± SD), TA98” value [10, 14] was 25 ± 3^NS, the “Number … (Means ± SD), TA98” value ([10]; without S9 mix, 0.4 μg/plate) was 30 ± 4^NS and the “Number … (Means ± SD), TA98” value ([10]; without S9 mix, 0.6 μg/plate) was 28 ± 8^NS. For the same compound, the “Number … (Means ± SD), TA98” value ([10]; without S9 mix, 0.8 μg/plate) was 31 ± 6^NS and the “Number … (Means ± SD), TA98” value ([10]; without S9 mix, 1 μg/plate) was 24 ± 5^NS.
